From US20260083723A1, “THERAPEUTIC AGENT OR PROPHYLACTIC AGENT FOR AMYOTROPHIC LATERAL SCLEROSIS” (Toray Industries, Inc., priority 2022, published 2026)
Where a name gives a salt, the structure may show the parent alone.

test: In vitro radical scavenging action (DPPH method); conditions: 1.2-100 μmol/L, 30 minutes at room temperature, absorbance at 517 nm
Procedure: The radical scavenging action of a test compound can be evaluated using an in vitro test and, for example, by a method (Antioxidants, 2019, vol. 258) using a stable radical, 1,1-diphenyl-2-picrylhydrazil (DPPH).
Radical scavenging action was evaluated using the DPPH method in the compound of Comparative Example 1, which is a tetrahydroquinoxaline derivative, and in the tetrahydroquinoline derivative (I) or a pharmaceutically acceptable salt thereof. The DPPH method was performed using an antioxidant capacity measurement kit (Dojindo Laboratories).
A test compound was dissolved in DMSO, and the resulting solution was then mixed with an assay buffer and a DPPH solution, which are included in the kit, to a total volume of 200 μL to obtain a final concentration of 10% DMSO, and the reaction was allowed to proceed. Wells added with […] ferrostatin-1, a radical scavenger, were grouped as “control,” and wells not added with test compound were grouped as “background”. The test compound was serially diluted 3-fold starting from a maximum concentration of 100 μmol/L, and the diluted test compound (1.2, 3.7, 11.1, 33.3, or 100 μmol/L) was added and allowed to react at room temperature. Thirty minutes after the reaction, the absorbance at 517 nm was measured, and the average absorbance value was calculated (N=2). The radical scavenging action of the test compound (hereinafter referred to as radical scavenging rate, %) was calculated based on Equation 2. The EC50 value of the test compound was calculated from the radical scavenging rate.
A note “no detection of radical scavenging action (N.D.),” is given to compounds with a EC50 of >100 μmol/L.

Structure (SMILES) | EC50 [µM]
FC(F)(F)Oc1ccc2c(c1)CCC(c1ccccc1)N2 (centres unmarked) [Example 81, 2-phenyl-6-(trifluoromethoxy)-1,2,3,4-tetrahydroquinoline] | > 100
Fc1ccc2c(c1)CCC(c1ccccc1)N2 (centres unmarked) [Example 82, 6-fluoro-2-phenyl-1,2,3,4-tetrahydroquinoline] | > 100
Clc1ccc2c(c1)CCC(c1ccccc1)N2 (centres unmarked) [Example 83, 6-chloro-2-phenyl-1,2,3,4-tetrahydroquinoline] | > 100
Fc1cc2c(cc1F)NC(c1ccccc1)CC2 (centres unmarked) [Example 85, 6,7-difluoro-2-phenyl-1,2,3,4-tetrahydroquinoline] | > 100
Cc1ccc2c(c1)CCC(c1ccc(C(N)=O)cc1)N2 (centres unmarked) [Example 99, 4-(6-methyl-1,2,3,4-tetrahydroquinolin-2-yl)benzamide] | > 100
Cc1ccc2c(c1)NC(c1ccc(S(N)(=O)=O)cc1)CC2 (centres unmarked) [Example 105, 4-(7-methyl-1,2,3,4-tetrahydroquinolin-2-yl)benzenesulfonamide] | > 100
Cc1ccc2c(c1)NC(c1ccc(C(N)=O)cc1)CC2 (centres unmarked) [Example 106, 4-(7-methyl-1,2,3,4-tetrahydroquinolin-2-yl)benzamide] | > 100
NS(=O)(=O)c1ccc(C2CCc3cc(F)ccc3N2)cc1 (centres unmarked) [Example 107, 4-(6-fluoro-1,2,3,4-tetrahydroquinolin-2-yl)benzenesulfonamide] | > 100
NS(=O)(=O)c1ccc(C2CCc3cc(F)ccc3N2)cc1 (centres unmarked) [Example 108, 4-(6-fluoro-1,2,3,4-tetrahydroquinolin-2-yl)benzenesulfonamide] | > 100
NS(=O)(=O)c1ccc(C2CCc3cc(F)ccc3N2)cc1 (centres unmarked) [Example 109, 4-(6-fluoro-1,2,3,4-tetrahydroquinolin-2-yl)benzenesulfonamide] | > 100
Cc1cccc2c1CCC(c1ccc(S(N)(=O)=O)cc1)N2 (centres unmarked) [Example 112, 4-(5-methyl-1,2,3,4-tetrahydroquinolin-2-yl)benzenesulfonamide] | > 100
NS(=O)(=O)c1ccc(C2CCc3cc(Cl)ccc3N2)cc1 (centres unmarked) [Example 115, 4-(6-chloro-1,2,3,4-tetrahydroquinolin-2-yl)benzenesulfonamide] | > 100
NS(=O)(=O)c1ccc(C2CCc3cc(Cl)ccc3N2)cc1 (centres unmarked) [Example 116, 4-(6-chloro-1,2,3,4-tetrahydroquinolin-2-yl)benzenesulfonamide] | > 100
NS(=O)(=O)c1ccc(C2CCc3cc(Cl)ccc3N2)cc1 (centres unmarked) [Example 117, 4-(6-chloro-1,2,3,4-tetrahydroquinolin-2-yl)benzenesulfonamide] | > 100
NS(=O)(=O)c1ccc(C2CCc3ccc(F)cc3N2)cc1 (centres unmarked) [Example 118, 4-(7-fluoro-1,2,3,4-tetrahydroquinolin-2-yl)benzenesulfonamide] | > 100
Cc1ccc2c(c1)CCC(c1ccc(S(N)(=O)=O)cc1)N2 (centres unmarked) [Example 119, 4-(6-methyl-1,2,3,4-tetrahydroquinolin-2-yl)benzenesulfonamide] | > 100
Cc1ccc2c(c1)CCC(c1ccc(S(N)(=O)=O)cc1)N2 (centres unmarked) [Example 120, 4-(6-methyl-1,2,3,4-tetrahydroquinolin-2-yl)benzenesulfonamide] | > 100
NC(=O)c1ccc(C2CCc3cc(Cl)ccc3N2)cc1 (centres unmarked) [Example 121, 4-(6-chloro-1,2,3,4-tetrahydroquinolin-2-yl)benzamide] | > 100
NC(=O)c1ccc(C2CCc3cc(Cl)ccc3N2)cc1 (centres unmarked) [Example 122, 4-(6-chloro-1,2,3,4-tetrahydroquinolin-2-yl)benzamide] | > 100
NC(=O)c1ccc(C2CCc3cc(Cl)ccc3N2)cc1 (centres unmarked) [Example 131, 4-(6-chloro-1,2,3,4-tetrahydroquinolin-2-yl)benzamide] | > 100
NC(=O)c1ccc(C2CCc3cc(F)ccc3N2)cc1 (centres unmarked) [Example 132, 4-(6-fluoro-1,2,3,4-tetrahydroquinolin-2-yl)benzamide] | > 100
NS(=O)(=O)c1ccc(C2CCc3c(Cl)cccc3N2)cc1 (centres unmarked) [Example 134, 4-(5-chloro-1,2,3,4-tetrahydroquinolin-2-yl)benzenesulfonamide] | > 100
NS(=O)(=O)c1ccc(C2CCc3c(F)cccc3N2)cc1 (centres unmarked) [Example 135, 4-(5-fluoro-1,2,3,4-tetrahydroquinolin-2-yl)benzenesulfonamide] | > 100
CS(=O)(=O)Nc1ccc(C2CCc3ccccc3N2)cc1 (centres unmarked) [Example 136, N-(4-(1,2,3,4-tetrahydroquinolin-2-yl)phenyl)methanesulfonamide] | > 100
NC(=O)c1ccc(C2CCc3c(F)cccc3N2)cc1 (centres unmarked) [Example 137, 4-(5-fluoro-1,2,3,4-tetrahydroquinolin-2-yl)benzamide] | > 100
NC(=O)c1ccc(C2CCc3c(Cl)cccc3N2)cc1 (centres unmarked) [Example 138, 4-(5-chloro-1,2,3,4-tetrahydroquinolin-2-yl)benzamide] | > 100
O=C(Cc1ccc2c(c1)CCC(c1ccccc1)N2)N1CC(O)C1 (centres unmarked) [Example 143, 1-(3-hydroxyazetidin-1-yl)-2-(2-phenyl-1,2,3,4-tetrahydroquinolin-6-yl)ethan-1-one hydrochloride] | > 100

More lines, now with the values ahead:

EC50 [µM] | Structure (SMILES)
> 100 | O=C(Cc1ccc2c(c1)CCC(c1ccccc1)N2)N1CC(O)C1 (centres unmarked) [Example 144, 1-(3-hydroxyazetidin-1-yl)-2-(2-phenyl-1,2,3,4-tetrahydroquinolin-6-yl)ethan-1-one hydrochloride]
> 100 | O=C(Cc1ccc2c(c1)CCC(c1ccccc1)N2)N1CCOCC1 (centres unmarked) [Example 145, 1-morpholino-2-(2-phenyl-1,2,3,4-tetrahydroquinolin-6-yl)ethan-1-one]
> 100 | CC1(C)CN(C(=O)Cc2ccc3c(c2)CCC(c2ccccc2)N3)C1 (centres unmarked) [Example 146, 1-(3,3-dimethylazetidin-1-yl)-2-(2-phenyl-1,2,3,4-tetrahydroquinolin-6-yl)ethan-1-one]
> 100 | COC1CN(C(=O)Cc2ccc3c(c2)CCC(c2ccccc2)N3)C1 (centres unmarked) [Example 147, 1-(3-methoxyazetidin-1-yl)-2-(2-phenyl-1,2,3,4-tetrahydroquinolin-6-yl)ethan-1-one]
> 100 | O=C(Cc1ccc2c(c1)CCC(c1ccccc1)N2)NC1COC1 (centres unmarked) [Example 148, N-(oxetan-3-yl)-2-(2-phenyl-1,2,3,4-tetrahydroquinolin-6-yl)acetamide]
> 100 | O=C(Cc1ccc2c(c1)CCC(c1ccccc1)N2)N1CC(F)(F)C1 (centres unmarked) [Example 149, 1-(3,3-difluoroazetidin-1-yl)-2-(2-phenyl-1,2,3,4-tetrahydroquinolin-6-yl)ethan-1-one]
> 100 | CN(CCO)C(=O)Cc1ccc2c(c1)CCC(c1ccccc1)N2 (centres unmarked) [Example 150, N-(2-hydroxyethyl)-N-methyl-2-(2-phenyl-1,2,3,4-tetrahydroquinolin-6-yl)acetamide]
> 100 | O=C(Cc1ccc2c(c1)CCC(c1ccccc1)N2)N1CCC1 (centres unmarked) [Example 151, 1-(azetidin-1-yl)-2-(2-phenyl-1,2,3,4-tetrahydroquinolin-6-yl)ethan-1-one]
> 100 | O=C(Cc1ccc2c(c1)CCC(c1ccccc1)N2)NC1CC1 (centres unmarked) [Example 152, N-cyclopropyl-2-(2-phenyl-1,2,3,4-tetrahydroquinolin-6-yl)acetamide]
> 100 | O=C(Cc1ccc2c(c1)CCC(c1ccccc1)N2)NC1CCC1 (centres unmarked) [Example 155, N-cyclobutyl-2-(2-phenyl-1,2,3,4-tetrahydroquinolin-6-yl)acetamide]
> 100 | O=C1CN(C(=O)Cc2ccc3c(c2)CCC(c2ccccc2)N3)CCN1 (centres unmarked) [Example 157]
> 100 | O=C(Cc1ccc2c(c1)CCC(c1ccccc1)N2)N1CCNCC1 (centres unmarked) [Example 158, 2-(2-phenyl-1,2,3,4-tetrahydroquinolin-6-yl)-1-(piperazin-1-yl)ethan-1-one]
> 100 | O=C(Cc1ccc2c(c1)CCC(c1ccccc1)N2)N1CC(F)(F)C1 (centres unmarked) [Example 160, 1-(3,3-difluoroazetidin-1-yl)-2-(2-phenyl-1,2,3,4-tetrahydroquinolin-6-yl)ethan-1-one]
> 100 | O=C(Cc1ccc2c(c1)CCC(c1ccccc1)N2)N1CC(F)(F)C1 (centres unmarked) [Example 161, 1-(3,3-difluoroazetidin-1-yl)-2-(2-phenyl-1,2,3,4-tetrahydroquinolin-6-yl)ethan-1-one]
